# Key:
# Type in all cases: physicochemical
# [1] = Assay testing by HPLC of products after sterilisation; settings: dry heat treatment at temperatures of from 150° C. to 170° C.
# Experimental: (§1) Assay testing was performed in duplicate with the key high performance liquid chromatography (HPLC) parameters shown in Table 1.
# (§2) The assays and related substances of the products obtained by each of sterilisation techniques A to F were assessed by the HPLC methods described above.
# [2] = Impurities determination (related substances) by HPLC of products after sterilisation; settings: dry heat treatment at temperatures of from 150° C. to 170° C.
# Experimental: (§3) Impurities determination was performed in duplicate with the key high performance liquid chromatography (HPLC) parameters shown in Table 2.
# as §2
# [3] = Overall assessment of products (assay and related substances) after sterilisation
# Experimental: as §1, §3, §2
structure (smiles),measurement,setting,value
"COc1cc2c(cc1OC)-c1c/c(=N\c3c(C)cc(C)cc3C)n(CCNC(N)=O)c(=O)n1CC2 [micronised ensifentrine, N-(2-{(2E)-9,10-dimethoxy-4-oxo-2-[(2,4,6-trimethylphenyl)imino]-6,7-dihydro-2H-pyrimido [6,1-a]isoquinolin-3(4H)-yl}ethyl) urea]",changes in assay,[1],no significant changes
same,changes in purity,[2],no significant changes
same,changes observed (assay and related substances),"[3]; technique C: dry heat treatment of dry powder, 150° C. for 150 minutes",No significant changes observed.
same,changes observed (assay and related substances),"[3]; technique D: dry heat treatment of dry powder, 160° C. for 120 minutes",No significant changes observed.
same,changes observed (assay and related substances),"[3]; technique E: dry heat treatment of dry powder, 170° C. for 60 minutes",No significant changes observed.
